Assay [1] concerns the target T1, Hordeum HPPD L320H, P321A (Hordeum vulgare, UniProt O48604, L320H/P321A).
T1 construct: His-tag (N); made in house; host or cells: E. coli BL21 (DE3)
Nature of the assay: HPPD activity assay, mutant. Particulars: Hordeum HPPD variant L320H, normalized on wild-type. It counts as biochemical. As to the method: (§1) The activity assay for HPPD is based on the analysis of homogentisic acid by reversed phase HPLC.
(§2) The assay mixture can contain 150 mM potassium phosphate buffer pH 7.0, 50 mM L-ascorbic acid, 100 μM Catalase (Sigma-Aldrich), 1 μM FeSO4 and 0.2 units of purified HPPD enzyme in a total volume of 505 μl. 1 unit is defined as the amount of enzyme that is required to produce 1 nmol of HGA per minute at 20° C.
(§3) The reaction is allowed to proceed for 45 min at room temperature. The reaction is stopped by the addition of 50 μl of 4.5 M phosphoric acid. The sample is filtered using a […] pore size PVDF filtration device. 5 μl of the cleared sample is analyzed on an UPLC HSS T3 column (particle size 1.8 μm, dimensions 2, 1×50 mm; Waters) by isocratic elution using 90% 20 mM NaH2PO4 pH 2.2, 10% methanol (v/v).
(§4) HGA is detected electrochemically at 750 mV (mode: DC; polarity: positive) and quantified by integrating peak areas (Empower software; Waters).
(§5) Inhibitors are dissolved in DMSO (dimethylsulfoxide) to a concentration of 0.5 mM. From this stock solution serial five-fold dilutions are prepared in DMSO, which are used in the assay. The respective inhibitor solution accounts for 1% of the assay volume. Thus, final inhibitor concentrations range from 5 μM to 320 pM, respectively. Activities are normalized by setting the uninhibited enzyme activity to 100%. IC50 values are calculated using non-linear regression.
(§6) Purified, mutant HPPD enzymes are obtained by the methods described above. Dose response and kinetic measurements are carried out using the described HPPD activity assay. Apparent michaelis constants (Km) and maximal reaction velocities (Vmax) are calculated by non-linear regression with the software GraphPad Prism 5 (GraphPad Software, La Jolla, USA) using a substrate inhibition model. […] Weighted means (by standard error) of K. and IC50 values are calculated from at least three independent experiments. The Cheng-Prusoff equation for competitive inhibition (Cheng, Y. C.; Prusoff, W. H. Biochem Pharmacol 1973, 22, 3099-3108) is used to calculate dissociation constants (Ki).
(§7) Field performance of the optimized HPPD enzyme, which is used as a herbicide tolerance trait may depend not only on its lack of sensitivity towards HPPD inhibiting herbicides but also on its activity. To assess the potential performance of a herbicide tolerance trait a tolerance index (TI) is calculated using the following formula: […]
(§8) Easy comparison and ranking of each trait is enabled by normalizing tolerance indexes on the respective wild-type HPPD.

Assay [2] concerns the target T2, Hordeum HPPD L353M, P321R, L320N (Hordeum vulgare, UniProt O48604, L320N/L353M/P321R).
T2 construct: His-tag (N); made in house; host or cells: E. coli BL21 (DE3)
Nature of the assay: HPPD activity assay, mutant. Format: biochemical. Particulars: Hordeum HPPD variant L353M, normalized on wild-type. As to the method:
as §1, §2, §3, §4, §5, §6, §7, §8

For assay [3], the system named is transgenic Arabidopsis plants (T2) HvHPPD L320H, P321A. In words: Greenhouse herbicide spray test. Format: in vivo, Arabidopsis thaliana. Particulars: two weeks after treatment. An excerpt: (§9) For post emergence treatment, the test plants are first grown to a height of 3 to 15 cm, depending on the plant habit, and only then treated with the herbicides. For this purpose, the test plants are either sown directly and grown in the same containers, or they are first grown separately and transplanted into the test containers a few days prior to treatment.
(§10) Herbicide injury scoring is done 2-3 weeks after treatment and is rated on a scale of 0 to 100%, 0% being no injury and 100% being complete death.
(§11) Transgenic Arabidopsis plants were sprayed with a range of doses from 0.78-6.25 g/ha of different HPPD-inhibiting herbicides and injury evaluations were taken two weeks after treatment.

Assay [4] deals with Arabidopsis plants, transgene none (WT). In words: Greenhouse herbicide spray test. It counts as in vivo, Arabidopsis thaliana. The following applies: two weeks after treatment.
Text: as §9, §10, §11

For assay [5], the system named is transgenic Arabidopsis plants (T2) AtHPPD M335Y, P336A, E363Q. Nature of the assay: Greenhouse herbicide spray test. It counts as in vivo, Arabidopsis thaliana. Particulars: two weeks after treatment.
Text: as §9, §10, §11

For assay [6], the system named is transgenic Arabidopsis plants (T2) PtHPPD WT (Picrophilus HPPD). Nature of the assay: Greenhouse herbicide spray test. It counts as in vivo, Arabidopsis thaliana. The following applies: for Injury evaluation: Arabidopsis T2 PtHPPD WT, two weeks after treatment.
Text: as §9, §10, §11

The subject of assay [7] is transgenic Arabidopsis plants (T2) AtHPPD F381I. In words: Greenhouse herbicide spray test. It counts as in vivo, Arabidopsis thaliana. Particulars: two weeks after treatment.
Text: as §9, §10, §11

In assay [8] the test system is transgenic Arabidopsis plants (T2) AtHPPD M335H, P336A, E363Q. Nature of the assay: Greenhouse herbicide spray test. Particulars: two weeks after treatment. Format: in vivo, Arabidopsis thaliana.
Text: as §9, §10, §11

[9] abbreviates: Table 18, no transgene, 0.78 g/ha.
Where [10] appears, read: Table 18, no transgene, 1.56 g/ha.
Where [11] appears, read: Table 18, no transgene, 3.125 g/ha.
Setting [12] is: Table 18, no transgene, 6.25 g/ha.
Setting [13] is: Table 19, no transgene, 0.78 g/ha.
The mark [14] stands for this setting: Table 19, no transgene, 1.56 g/ha.
[15] abbreviates: Table 19, no transgene, 3.125 g/ha.
[16] abbreviates: Table 19, no transgene, 6.25 g/ha.

T2 sequence (O48604 whole entry R146V/R147D/R148G/A164G/L320N/P321R/L353M): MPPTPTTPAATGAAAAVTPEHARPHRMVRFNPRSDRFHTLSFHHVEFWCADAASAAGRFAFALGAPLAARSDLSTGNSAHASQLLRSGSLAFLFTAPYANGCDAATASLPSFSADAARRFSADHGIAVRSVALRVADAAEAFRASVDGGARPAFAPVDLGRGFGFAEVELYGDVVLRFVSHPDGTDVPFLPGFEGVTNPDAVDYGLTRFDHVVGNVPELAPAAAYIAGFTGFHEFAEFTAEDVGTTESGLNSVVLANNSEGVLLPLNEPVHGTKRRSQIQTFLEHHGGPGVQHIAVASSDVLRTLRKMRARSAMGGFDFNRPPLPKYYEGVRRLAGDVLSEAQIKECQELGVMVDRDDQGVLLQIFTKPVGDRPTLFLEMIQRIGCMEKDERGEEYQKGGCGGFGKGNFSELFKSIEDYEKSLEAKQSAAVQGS
T1 sequence (O48604 whole entry R146V/R147D/R148G/A164G/L320H/P321A): as the sequence (O48604 whole entry R146V/R147D/R148G/A164G/L320N/P321R/L353M) above, with N320H, R321A, M353L counted along it

`Cc1c(C(=O)c2cnn(C)c2O)ccc(S(C)(=O)=O)c1C1=NOCC1` [Inhibitor 1, [3-(4,5-dihydroisoxazol-3-yl)-2-methyl-4-methylsulfonyl-phenyl]-(5-hydroxy-1-methyl-pyrazol-4-yl)methanone]: the “Normalized tolerance index (TI)” value in assay [1] amounted to 5.1; in assay [2], 2.6. The Injury evaluation turned out to be 0% in assay [3] (0.78 g/ha); 0% in assay [3] (1.56 g/ha); 0% in assay [3] (3.125 g/ha); 0% in assay [3] (6.25 g/ha); 89% in assay [4] (setting [9]); 99% in assay [4] (setting [10]). For the same compound, the Injury evaluation in assay [4] (setting [11]) came out at 99%; in assay [4] (setting [12]), 100%; in assay [4] (setting [13]), 85%; in assay [4] (setting [14]), 88%; in assay [4] (setting [15]) it was 96%; in assay [4] (setting [16]), 99%. For the same compound, the Injury evaluation was 12% in assay [5] (0.78 g/ha); 21% in assay [5] (1.56 g/ha); 42% in assay [5] (3.125 g/ha); 68% in assay [5] (6.25 g/ha); 13% in assay [6] (0.78 g/ha); 17% in assay [6] (1.56 g/ha). The Injury evaluation in assay [6] (3.125 g/ha) stood at 62%; in assay [6] (6.25 g/ha), 99%; in assay [7] (1.56 g/ha), 43%; in assay [7] (3.125 g/ha), 55%; in assay [7] (6.25 g/ha) it was 70%; in assay [8] (0.78 g/ha) it was 0%. In addition, the Injury evaluation worked out at 10% in assay [8] (1.56 g/ha), 15% in assay [8] (3.125 g/ha) and 15% in assay [8] (6.25 g/ha). Besides, in assay [6] (Arabidopsis expressing Picrophilus HPPD, dose of 3,125 g/ha), the “fold less susceptible compared to the control” value amounted to 1.6 fold. In addition, the “fold tolerance compared to the control” value in assay [6] (Arabidopsis expressing Picrophilus HPPD, two lowest application rates) was found to be 6.8 fold.

For the compound `CS(=O)(=O)c1ccc(C(=O)C2C(=O)CCCC2=O)c([N+](=O)[O-])c1` [Inhibitor 2, 2-(4-methylsulfonyl-2-nitro-benzoyl)cyclohexane-1,3-dione], the “Normalized tolerance index (TI)” value stood at 3.5 in assay [1] and 0.4 in assay [2]. Moreover, the Injury evaluation is listed as 0% in assay [3] (0.78 g/ha); 0% in assay [3] (1.56 g/ha); 0% in assay [3] (3.125 g/ha); 0% in assay [3] (6.25 g/ha); 78% in assay [4] (setting [9]); 95% in assay [4] (setting [10]). Further, the Injury evaluation in assay [4] (setting [11]) is recorded as 100%; in assay [4] (setting [12]) it was 99%; in assay [4] (setting [13]), 93%; in assay [4] (setting [14]), 99%; in assay [4] (setting [15]) it was 100%; in assay [4] (setting [16]), 100%. Besides, the Injury evaluation was found to be 5% in assay [5] (0.78 g/ha); 12% in assay [5] (1.56 g/ha); 21% in assay [5] (3.125 g/ha); 38% in assay [5] (6.25 g/ha); 0% in assay [6] (0.78 g/ha); 0% in assay [6] (1.56 g/ha). Besides, the Injury evaluation was 3% in assay [6] (3.125 g/ha); 0% in assay [6] (6.25 g/ha); 20% in assay [7] (1.56 g/ha); 25% in assay [7] (3.125 g/ha); 78% in assay [7] (6.25 g/ha); 3% in assay [8] (0.78 g/ha). For the same compound, the Injury evaluation in assay [8] (1.56 g/ha) is recorded as 0%; in assay [8] (3.125 g/ha), 13%; in assay [8] (6.25 g/ha) it was 12%. In addition, in assay [6] (Arabidopsis overexpressing Picrophilus HPPD (SEQ-ID:40), tested application rates 0.78-6.25 g/ha), the “leaf damage (in words)” value was “no leaf damages could be observed”.

Regarding `COCCOCc1nc(C(F)(F)F)ccc1C(=O)C1=C(O)C2CCC(C2)C1=O` (centres unmarked) [Inhibitor 3, 2-hydroxy-3-[2-(2-methoxyethoxymethyl)-6-(trifluoromethyl)pyridine-3-carbonyl]bicyclo[3.2.1]oct-2-en-4-one], the “Normalized tolerance index (TI)” value in assay [1] worked out at 2.5; in assay [2], 0.6.

On to `CS(=O)(=O)c1ccc(C(=O)C2C(=O)CCCC2=O)c(Cl)c1COCC(F)(F)F` [Inhibitor 4, 2-[2-chloro-4-methylsulfonyl-3-(2,2,2-trifluoroethoxymethyl)benzoyl]cyclohexane-1,3-dione], for which the “Normalized tolerance index (TI)” value came to 4.3 in assay [1] and 2.2 in assay [2].

For the origin of these results see US12065654B2, “Plants having increased tolerance to herbicides” (BASF SE, priority 2014, dated 2024).
